Results from patent publication US20260076948A1, “TREATMENT OF DIABETIC RETINOPATHY USING ENDOTHELIN RECEPTOR ANTAGONISTS” (Perfuse Therapeutics, Inc., priority 2019, published 2026).
Entries after “also recorded” stand apart in the source; their conditions may differ.

How the values were obtained:
[1] = Pharmacokinetics after topical or oral administration in the rat; assay type: in vivo, Brown Norway rats
Procedure: After the administrations, the animals (N=2) were euthanized at different time points (e.g. 4 and 8 hours) and tissues were collected for analysis. List of tissues collected include plasma, retina/retinal pigment epithelium (RPE)/choroid, vitreous humor and aqueous humor.

[2] = Pharmacokinetics after topical administration in the rabbit; assay type: in vivo, Dutch-belted rabbits; conditions: single eye drop 100 μg, 10 minutes, 2 and 7 hours
Procedure: To determine the pharmacokinetic properties of Edonentan following topical administration in the rabbit, rabbits (Dutch-belted rabbits) received an eye drop in both eyes (100 μg of Edonentan, 35 μL dose volume/eye). After the administrations, the animals (N=2) were euthanized at different time points (e.g. 10 minutes (immediately after pot-dose), 2 and 7 hours) and tissues were collected for analysis. List of tissues collected include plasma, retina, vitreous humor and bulbar conjunctiva.

[3] = system: laser-induced glaucoma model; assay: Laser-induced non-human primate glaucoma model, ONH blood flow by LSFG after IVT administration; assay type: in vivo, rhesus macaque, Macaca Mulatta
Procedure: Non-human primates (rhesus macaque, Macaca Mulatta) were obtained for this study. One eye of each animal underwent induction of elevation of intraocular pressure (IOP) by repeated laser photocoagulation of the trabecular meshwork. Imaging sessions were repeated to monitor the optic nerve head (ONH) and retinal structural changes. A study was performed to compare an experimental glaucoma eye and a contralateral healthy eye (control) of three non-human primates in global average mean blur rate (MBR) and MBR change from baseline over time as an index of ONH blood flow in a laser-induced glaucoma model. More specifically, a vehicle control, 0.02 mg/mL of Edonentan, 0.2 mg/mL of Edonentan, or 2.0 mg/mL of Edonentan was intravitreally administered ([…]) to a glaucomatous eye of each of three non-human primates (rhesus macaque, Macaca Mulatta). These graphs show the ONH blood flow in the three non-human primates after IVT administration of a vehicle alone (FIG. 7A, FIG. 7E, and FIG. 7I), 0.02 mg/mL of Edonentan (FIG. 7B, FIG. 7F, and FIG. 7J), 0.2 mg/mL of Edonentan (FIG. 7C, FIG. 7G, and FIG. 7K) or 2.0 mg/mL of Edonentan (FIG. 7D, FIG. 7H, and FIG. 7L). […] In one of the above three non-human primates, an LSFG scan was performed at various selected time points when Edonentan was administered at 2.0 mg/mL.

[4] = system: oxygen-induced ischemic retinopathy (OIR); assay: Mouse oxygen-induced ischemic retinopathy (OIR), retinal hypoxia area; assay type: in vivo; conditions: OIR mice, IVT single dose 1 μL of 2 μg/μL; 24, 48, 96 hours
Procedure: A relevant mice model was used to obtain the retinal hypoxia area in mice with oxygen-induced ischemic retinopathy (OIR) at different time points, as shown in FIG. 4. […] Briefly, at P17, mice with OIR (n=60) were given an injection of ET-1 antagonist (1 μL of 2 μg/μL Edonentan formulation, single dose) in one eye and PBS in the fellow eye. At 24, 48, and 96 hours after injection, mice (n=10 for each time point) were euthanized and the retinas were dissected and stained with GSA lectin and hypoxyprobe. The area of NV, area of retinal hypoxia, and the area of retinal nonperfusion were determined for each retina.

ETA/ETB receptor = conditions: background statement; cited from earlier work
ET-1 induced vasospasm = assay: Rabbit ET-1 induced vasospasm model, retinal blood flow (FA, OCT-A); assay type: in vivo, rabbit (Oryctolagus cuniculus)
Procedure: Adult, male Dutch-belted rabbits were given a 20 μl intravitreal injection (IVT) of 0.5 μg of ET-1 followed by a 20 μl intravitreal injection of 10-100 μg Edonentan given 30 min after the ET-1 administration. IOP, optical coherence tomography-angiography (OCT-A), and fluorescein angiograms (FA) were performed at pre-specified time points (30, 45, 60, and 75 min) following ET-1 and Edonentan administration to assess retinal blood flow changes induced by ET-1+/−Edonentan. […] To evaluate the effect of retinal blood flow following intravitreally administered endothelin-1 (ET-1) followed by the antagonist Edonentan in the rabbit, rabbits (Oryctolagus cuniculus) were given a 20 μL intravitreal injection of ET-1 in the left eye followed by a 20 μL intravitreal injection of Edonentan at 2 (or 3) different doses (e.g. 0.1 μg, 0.5 μg, 2.5 μg). The pulse ox, tonometry, optical coherence tomography angiography (OCTA), fluorescein angiography (FA) and retinal leakage scoring were performed for evaluation.

Detection in the aqueous humor after oral administration ([1]; oral, 17 mg/kg as printed): detectable
Detection in the retina/RPE/choroid and vitreous humor after oral administration ([1]; oral, 1.7 and 17 mg/kg as printed): detectable
SMILES: Cc1onc(NS(=O)(=O)c2ccccc2-c2ccc(-c3ncco3)cc2CN(C)C(=O)CC(C)(C)C)c1C [Edonentan, N-[[2′-[[(4,5-dimethyl-3-isoxazolyl)amino]sulfonyl]-4-(2-oxazolyl)[1,1′-biphenyl]-2-yl]methyl]-N,3,3-trimethylbutanamide]
Ocular exposure after topical administration (retina/RPE/choroid, aqueous humor, vitreous humor) ([1]; eye drop 100 μg, 4 and 8 hours): detected; also recorded: permeate through cornea/sclera and achieve retina exposure
Tissue exposure after topical administration (plasma, retina, vitreous humor, bulbar conjunctiva) [2]: detected in all tissues examined at all timepoints; also recorded: penetrate through ocular layers
ONH blood flow (global average MBR, LSFG), individual animals ([3]; IVT 0.02, 0.2 or 2.0 mg/mL Edonentan, glaucomatous eye, over 6 hours): improvement of ONH blood flow in a dose-dependent manner
ONH blood flow, aggregate of three non-human primates ([3]; IVT 0.02, 0.2 or 2.0 mg/mL, experimental glaucoma eyes vs control eyes): does-related increase of ONH blood flow
Retinal hypoxia area [4]: improvement of retinal hypoxia; also recorded: improved retinal hypoxia
Endothelin receptor antagonism, description in words (ETA/ETB receptor): highly selective and very potent endothelin A receptor antagonist
ET-1 induced vasospasm / vasoconstriction (fluorescein angiography) (ET-1 induced vasospasm; 0.5 μg ET-1 IVT, then 10 μg Edonentan IVT 30 min later): reversed; also recorded: reversal
Time to reversal of the ET-1 effect (ET-1 induced vasospasm; after ET-1, 10 μg Edonentan IVT (60 min after Edonentan)): ≤ 90 min
Fluorescein dye velocity as an index of retinal blood flow (ET-1 induced vasospasm; healthy rabbits, 0.5 μg ET-1 and 10 μg antagonist IVT): improved to control levels
